The subject of the experiment is MKN-45. The experiment is described as follows: Cytotoxicity against human MKN45 cells after 1 hr by Western blotting analysis. To be noted: MKN-45, 1 h. A general note: In western blotting, separated proteins are transferred to a membrane and probed.

Compound `OCCn1cc(-c2ccc3cnn(Cc4ccc5ncccc5c4)c3c2)cn1` returned an IC50 of 6.72 µM.
Then `O[C@H]1CC[C@H](n2cc(-c3ccc4cnn(Cc5ccc6ncccc6c5)c4c3)cn2)CC1`, with 5.45 µM; and `c1cnc2ccc(Cn3cc4ccc(-c5cnn(CCOC6CCCCO6)c5)cc4n3)cc2c1` (stereo not given), with 12 µM.
Take `O[C@H]1CC[C@H](n2cc(-c3ccc4cn(Cc5ccc6ncccc6c5)nc4c3)cn2)CC1`: inhibition was half-maximal at 13.4 µM (IC50).
Regarding `c1cnc2ccc(Cn3ncc4ccc(-c5cnn(CCOC6CCCCO6)c5)cc43)cc2c1` (stereo not given), the IC50 was determined as 14 µM.
Then `CC(C)(C)[Si](C)(C)O[C@H]1CC[C@H](n2cc(-c3ccc4cnn(Cc5ccc6ncccc6c5)c4c3)cn2)CC1`, with 11 µM; and `Cn1cc(-c2ccc3cnn(Cc4ccc5ncccc5c4)c3c2)cn1`, with 12.9 µM; and `Cn1cc(-c2ccc3cn(Cc4ccc5ncccc5c4)nc3c2)cn1`, with 106 µM.
`CC(C)(C)[Si](C)(C)O[C@H]1CC[C@H](n2cc(-c3ccc4cn(Cc5ccc6ncccc6c5)nc4c3)cn2)CC1`: the half-maximal inhibitory concentration (IC50) amounted to 1300 µM.
Then `OCCn1cc(-c2ccc3cn(Cc4ccc5ncccc5c4)nc3c2)cn1`, with 110 µM.

As usually defined, the IC50 is the concentration that gives 50% inhibition. A low value points to higher potency.

Source of the values: ChEMBL document CHEMBL2401697, “Indazoles as potential c-Met inhibitors: design, synthesis and molecular docking studies” (Eur J Med Chem, 2013).
